Series [1] concerns the target T1, recombinant full-length PDE2A protein (Homo sapiens, UniProt O00408).
T1 construct: Expression of recombinant full-length PDE2A protein in insect Sf9 cells; GST (N); made in house; host or cells: insect Sf9 cells (baculovirus)
The series is described as follows: Evaluation of PDE2 phosphodiesterase inhibitory activity in vitro (fluorescence polarization, Transcreener AMP2/GMP2). Format: biochemical. The settings on record: IC50 classes; substrate 1 μM cGMP; room temperature one hour. As for the experimental part:
Experimental objective: The substituted Alexa Fluor 633 fluorescent dye on the AMP/GMP antibodies was detected by the fluorescence polarization analysis to determine the concentration of AMP/GMP produced in the reaction system, which was used to calculate the IC50 values of the test compounds against PDE2 phosphodiesterase.
The measured buffer solution: 10 mM Tris-HCl, pH 7.5, 5 mM MgCl2, 0.01% Brij 35, 1 mM DTT, and 1% DMSO.
Enzyme: Expression of recombinant full-length PDE2A protein in insect Sf9 cells using N-terminal GST-tag with baculovirus.
Transcreener® AMP^2/GMP^2 antibody, AMP2/GMP2 AlexaFluor 633 fluorescent dye.
The enzyme solution was prepared using freshly prepared buffer solution, and then added to the reaction holes, the DMSO solutions of the test compounds were added by the Echo550 non-contact nanoliter acoustic pipetting system, and then pre-incubated at room temperature for 10 minutes, the reaction was initiated by the addition of the substrate (1 μM cGMP), and then reacted at room temperature for one hour. And then the detection system (Transcreener® AMP^2/GMP^2 antibody, AMP2/GMP2 AlexaFluor 633 fluorescent dye) was added, reacted at room temperature for 90 minutes, the fluorescence polarization was detected using Ex/Em 620/688.
The fluorescence polarization intensity was converted to nM concentration by AMP/GMP standard curve, The relative enzyme activity relative to DMSO blank was calculated, IC50 values and curves were calculated using Prism software packages (GraphPad Software, San Diego Calif., USA).
A general note: Polarisation of emitted light reports the rotation of a fluorescent probe.

The subject of a further series is TNF-α. The series is described as follows: Effect of compounds on TNF-α in LPS-induced blood of rats in vitro (ELISA). In kind it is cell-based, Sprague Dawley rats. The note with it: compound 100 μM; LPS-induced rat blood, 5 hours; plasma TNF-α by ELISA; read-out: TNF-α inhibition ratio. As for the experimental part:
Experimental objective: Detect the effects of compounds on TNF-α in LPS-induced blood of rats in vitro, evaluate the inhibitory effect of the compounds on TNF-α in LPS-induced blood of rats.
Sprague Dawley rats (male, 210-260 g, 8-10 weeks old, Shanghai Slack);
Rat TNF-alpha Quantikine ELISA Kit (R&D, #SRTA00).
Test compounds solutions with a concentration of 1 mM were prepared, 40 μL of which (the final concentration of the compound was 100 μM) was respectively added to 48-hole cell culture plates. Rats were anesthetized with isoflurane, heart blood was collected (heparin was used to anticoagulation). The blood was added to the 48-hole plates holding the test compounds, 320 μL per hole. The 48-hole plates were placed in a cell incubator and incubated for 30 minutes, 40 μL LPS solution was added (100 μg/mL), mixed and placed in the incubator and continued to incubate. the 48-hole plates was taken out after 5 hours, the blood samples were transferred to 1.5 mL centrifuge tubes, centrifuged in a centrifuge (4,500 rpm, 4° C., 5 minutes), the upper plasma were separated, frozen after storage and stored in a refrigerator at −80° C. The levels of TNF-α in plasma samples were measured using the R & D ELISA kit according to the kit instructions the nest day.
On the technique in general: An ELISA detects its analyte on a solid surface through an enzyme-linked reagent.

Series [2] is described as follows: Pharmacokinetic evaluation of compounds in SD rats. The settings on record: single intravenous injection and oral administration; for bioavailability / clearance / AUC / half-life: male, Sprague-Dawley, rat, plasma; for bioavailability: read-out: Bioavailability F; for clearance: read-out: Clearance rate; for AUC: read-out: Concentration integration AUC; for half-life: read-out: Half-life T1/2 (converted). Format: in vivo, Sprague Dawley rats. As for the experimental part: Experimental objective: The pharmacokinetics of test compounds in SD rats.
Sprague Dawley rats (male, 200-300 g, 7-9 weeks old, Shanghai Slack).
The pharmacokinetic characteristics of rodents after intravenous and oral administration of the compounds were tested according to the standard protocol, in the experiment, the candidate compound was formulated into a clear solution, and the rats were given single intravenous injection and oral administration. Intravenous and oral solvents are a certain proportion of hydroxypropyl βcyclodextrin aqueous solution or physiological saline solution. Blood samples within 24 hours were collected, centrifuged (3000 g) for 15 minutes, the supernatant were separated to obtain the plasma samples, the protein was precipitated by adding a 4 times volume of acetonitrile solution that containing the internal standard, centrifuged and the supernatant was then centrifuged after adding equal volume of water, then the supernatant was injected, the plasma concentration was quantitatively analyzed by LC-MS/MS analysis, and pharmacokinetics parameters such as peak concentration, peak time, clearance rate, half-life, drug area under the curve, bioavailability etc. are calculated.

Some results are limits rather than exact numbers.

T1 sequence (O00408 whole entry, species assumed): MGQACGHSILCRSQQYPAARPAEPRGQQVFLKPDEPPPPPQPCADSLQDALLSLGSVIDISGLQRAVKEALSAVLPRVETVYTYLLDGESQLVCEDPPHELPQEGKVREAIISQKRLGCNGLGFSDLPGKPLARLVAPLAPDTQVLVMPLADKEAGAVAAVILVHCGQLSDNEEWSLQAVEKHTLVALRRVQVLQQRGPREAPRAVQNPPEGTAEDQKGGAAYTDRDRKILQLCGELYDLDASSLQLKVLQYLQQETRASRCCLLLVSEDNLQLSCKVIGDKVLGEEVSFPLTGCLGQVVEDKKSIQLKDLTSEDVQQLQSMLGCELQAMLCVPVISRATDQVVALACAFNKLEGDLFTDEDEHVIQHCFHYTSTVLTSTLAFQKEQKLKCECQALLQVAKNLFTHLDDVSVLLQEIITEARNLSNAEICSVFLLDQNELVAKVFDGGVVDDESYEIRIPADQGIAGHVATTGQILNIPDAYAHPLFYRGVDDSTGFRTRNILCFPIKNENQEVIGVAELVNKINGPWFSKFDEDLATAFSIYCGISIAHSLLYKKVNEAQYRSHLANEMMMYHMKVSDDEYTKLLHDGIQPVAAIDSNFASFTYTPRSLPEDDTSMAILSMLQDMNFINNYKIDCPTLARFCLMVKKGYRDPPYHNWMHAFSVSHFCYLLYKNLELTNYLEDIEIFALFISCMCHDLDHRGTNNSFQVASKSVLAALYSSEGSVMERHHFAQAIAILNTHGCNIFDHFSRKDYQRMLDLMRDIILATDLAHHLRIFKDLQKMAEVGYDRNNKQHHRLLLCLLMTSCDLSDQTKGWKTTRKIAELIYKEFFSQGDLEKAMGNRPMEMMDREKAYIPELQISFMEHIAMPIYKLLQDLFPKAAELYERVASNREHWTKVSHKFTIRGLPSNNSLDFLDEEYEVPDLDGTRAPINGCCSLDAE

Take `Cn1cnc2c1c(=O)n(CC1CCC(O)(C(F)(F)F)CC1)c(=O)n2C` (single isomer, unassigned) [Embodiment 12 isomer 1]: the IC50 (as a rule, the concentration that gives 50% inhibition) in series [1] was 10 to 50 µM. Also, the inhibition at 100 µM in the series with TNF-α is 60 to 80%.

In the case of `Cn1cnc2c1c(=O)n(CC1CCC(O)(C(F)(F)F)CC1)c(=O)n2C` (single isomer, unassigned) [Embodiment 12 isomer 2], the concentration for half-maximal inhibition (IC50) in series [1] is 1 to 10 µM. Besides, in series [2], the bioavailability amounted to 34.1%, the clearance was 41 mL/min/kg, the AUC was 3.85 µM·h and the half-life was 1.6 h.

With `Cn1c(=O)n(CC2CCC(O)(C(F)(F)F)CC2)c(=O)c2c1ncn2CC(F)(F)F` (single isomer, unassigned) [Embodiment 45 isomer 2, 1-((4-Hydroxy-4-(trifluoromethyl)cyclohexyl)methyl)-3-methyl-7-(2,2,2-trifluoroethyl)-1H-purine-2,6(3H,7H)-dione], in series [1], the IC50 is 1 to 10 µM. In series [2], the bioavailability was determined as 17.1%, the clearance was found to be 58.4 mL/min/kg, the AUC was determined as 1.29 µM·h and the half-life is 6.19 h.

On to `Cn1c(=O)n(CC2CCC(O)(C(F)(F)F)CC2)c(=O)c2c1ncn2CC1CC1` (single isomer, unassigned) [Embodiment 50 isomer 2, 7-(Cyclopropylmethyl)-1-((4-hydroxy-4-(trifluoromethyl)cyclohexyl)methyl)-3-methyl-1H-purine-2,6(3H,7H)-dione], for which, in series [1], the IC50 is less than 1 µM. Besides, in the series on TNF-α, the inhibition at 100 µM is 80 to 100%. Besides, in series [2], the bioavailability was determined as 42.6%, the clearance is 71.6 mL/min/kg, the AUC came to 2.49 µM·h and the half-life is 0.56 h.

In the case of `Cn1c(=O)n(CC2CCC(C)(O)CC2)c(=O)c2c1ncn2CC1CC1` (single isomer, unassigned) [Embodiment 51 isomer 2], the IC50 in series [1] is 1 to 10 µM. Besides, in the series on TNF-α, the inhibition at 100 µM was 80 to 100%. Besides, in series [2], the bioavailability is 47.9%, the clearance was found to be 54.4 mL/min/kg, the AUC turned out to be 4.39 µM·h and the half-life was 0.793 h.

Turning to `Cn1cnc2c1c(=O)n(CCCCC(C)(O)C(F)(F)F)c(=O)n2C` (stereo not drawn) [Embodiment 1, 3,7-Dimethyl-1-(6,6,6-trifluoro-5-hydroxy-5-methylhexyl)-1H-purine-2,6(3H,7H)-dione], the IC50 in series [1] was 10 to 50 µM. The inhibition at 100 µM in the series with TNF-α fell in the range of 60 to 80%. Also, in series [2], the bioavailability is 59.7%, the clearance came to 54.7 mL/min/kg, the AUC amounted to 1.91 µM·h and the half-life is 0.659 h.

Consider `CCC(O)(CC)CCCCn1c(=O)c2c(ncn2C)n(C)c1=O` [Embodiment 2, 1-(5-Ethyl-5-hydroxyheptyl)-3,7-dimethyl-1H-purine-2,6(3H,7H)-dione], for which the IC50 in series [1] was 1 to 10 µM. In addition, in series [2], the bioavailability is 34.2%, the clearance turned out to be 63.6 mL/min/kg, the AUC is 0.902 µM·h and the half-life is 0.481 h.

With `Cn1cnc2c1c(=O)n(CC1CCC(O)(C(F)(F)F)CC1)c(=O)n2C` (stereo not drawn) [Embodiment 11, 1-((4-Hydroxy-4-(trifluoromethyl)cyclohexyl)methyl)-3,7-dimethyl-1H-purine-2,6(3H, 7H)-dione], in series [1], the IC50 lay in the range of 10 to 50 µM. Besides, the inhibition at 100 µM with TNF-α lay in the range of 60 to 80%.

`Cn1cnc2c1c(=O)n(C[C@H]1CC[C@](O)(C(F)(F)F)CC1)c(=O)n2C` [Embodiment 12, 1-(((1S,4S)-4-Hydroxy-4-(trifluoromethyl)cyclohexyl)methyl)-3,7-dimethyl-1H-purine-2,6(3H,7H)-dione]: in series [2], the “Bioavailability F” value worked out at 41.2%, the Clearance rate is given as 32.7 mL/min/kg, the “Concentration integration AUC” value worked out at 5.863 µM·h and the “Half-life T1/2” value was determined as 3.12 h.

Take `Cn1cnc2c1c(=O)n(Cc1ccc(C(C)(O)C(F)(F)F)cc1)c(=O)n2C` (stereo not drawn) [Embodiment 27]: in series [1], the IC50 was 1 to 10 µM. Moreover, the inhibition at 100 µM in the series on TNF-α lay in the range of 60 to 80%. Also, in series [2], the bioavailability worked out at 33.8%, the clearance was 13.6 mL/min/kg, the AUC was determined as 11.4 µM·h and the half-life was 2.96 h.

As to `Cn1cnc2c1c(=O)n(Cc1ccc(C(C)(O)C(F)(F)F)nc1)c(=O)n2C` (stereo not drawn) [Embodiment 28], the IC50 in series [1] was 1 to 10 µM. Moreover, in series [2], the bioavailability is 149%, the clearance was found to be 12.9 mL/min/kg, the AUC is 51.2 µM·h and the half-life was 2.27 h.

Consider `C[C@H](O)CNCCn1c(=O)c2c(ncn2C)n(C)c1=O` [Embodiment 40, (S)-1-(2-((2-Hydroxypropyl)amino)ethyl)-3,7-dimethyl-1H-purine-2,6(3H,7H)-dione], for which the inhibition at 100 µM in the series on TNF-α was in the range of 60 to 80%.

As for `Cn1c(=O)n(CC2CCC(O)(C(F)(F)F)CC2)c(=O)c2c1ncn2CC(F)(F)F` (stereo not drawn) [Embodiment 44, 1-((4-Hydroxy-4-(trifluoromethyl)cyclohexyl)methyl)-3-methyl-7-(2,2,2-trifluoroethyl)-1H-purine-2,6(3H,7H)-dione], the IC50 in series [1] is 1 to 10 µM. For the same molecule, in the series with TNF-α, the inhibition at 100 µM is 80 to 100%.

For `Cn1c(=O)n(CC2CCC(O)(C(F)(F)F)CC2)c(=O)c2c1ncn2CC1CC1` (stereo not drawn) [Embodiment 49, 7-(Cyclopropylmethyl)-1-((4-hydroxy-4-(trifluoromethyl)cyclohexyl)methyl)-3-methyl-1H-purine-2,6(3H,7H)-dione], the IC50 in series [1] was in the range of 1 to 10 µM. In addition, the inhibition at 100 µM with TNF-α was 80 to 100%.

In the case of `Cn1c(=O)n(Cc2ccc(C(C)(O)C(F)(F)F)nc2)c(=O)c2c1ncn2CC1CC1` (stereo not drawn) [Embodiment 55, 7-(Cyclopropylmethyl)-3-methyl-1-((6-(1,1,1-trifluoro-2-hydroxypropan-2-yl)pyridin-3-yl)methyl)-1H-purine-2,6-(3H,7H)-dione], the IC50 in series [1] was less than 1 µM. Besides, the inhibition at 100 µM with TNF-α lay within 80 to 100%. In series [2], the bioavailability came out at 95.8%, the clearance turned out to be 21.5 mL/min/kg, the AUC came out at 17.8 µM·h and the half-life was 2.18 h.

Source of the values: patent USRE49128E1, “Hydroxyl purine compounds and applications thereof” (GUANGDONG RAYNOVENT BIOTECH CO., LTD., priority 2014, dated 2022).
